Measurements from ChEMBL document CHEMBL1157113, “Insulin-like growth factor-1 receptor (IGF-1R) kinase inhibitors: SAR of a series of 3-[6-(4-substituted-piperazin-1-yl)-4-methyl-1H-benzimidazol-2-yl]-1H-pyridine-2-one” (Bioorg Med Chem Lett, 2010).

Legend:
Type in all cases: ADME, organism-based
[1] = AUC (0 to 4 hrs) in mouse at 20 mg/kg; parameters: time < 4 hr, dose 20 mg/kg; conditions: plasma
[2] = Oral bioavailability in mouse at 75 mg/kg; conditions: in vivo
[3] = Oral bioavailability in rat at 75 mg/kg; conditions: in vivo
[4] = Total clearance in mouse at 5 mg/kg, iv and 75 mg/kg, po; conditions: in vivo
[5] = Total clearance in rat at 5 mg/kg, iv and 75 mg/kg, po; conditions: in vivo
[6] = Volume of distribution at steady state in mouse at 5 mg/kg, iv and 75 mg/kg, po; conditions: in vivo, read-out: Vdss
[7] = Volume of distribution at steady state in rat at 5 mg/kg, iv and 75 mg/kg, po; conditions: in vivo, read-out: Vdss
[8] = Half life in mouse at 5 mg/kg, iv and 75 mg/kg, po; conditions: in vivo
[9] = Half life in rat at 5 mg/kg, iv and 75 mg/kg, po; conditions: in vivo

Compound	AUC(0-t) at 4 h [1] [µM·h]	also measured
Cc1cc(N2CCN(CCCF)CC2)cc2[nH]c(-c3c(NC[C@@H](O)c4cccc(Cl)c4)cc[nH]c3=O)nc12	11.4	–
CCN1CCN(c2cc(C)c3nc(-c4c(NC[C@@H](O)c5cccc(Cl)c5)cc[nH]c4=O)[nH]c3c2)CC1	1	–
CNC(=O)CN1CCN(c2cc(C)c3nc(-c4c(NC[C@@H](O)c5cccc(Cl)c5)cc[nH]c4=O)[nH]c3c2)CC1	1.6	–
Cc1cc(N2CCN(CC#N)CC2)cc2[nH]c(-c3c(NC[C@@H](O)c4cccc(Cl)c4)cc[nH]c3=O)nc12	10.3	–
Cc1cc(N2CCN(CC(=O)NCCF)CC2)cc2[nH]c(-c3c(NC[C@@H](O)c4cccc(Cl)c4)cc[nH]c3=O)nc12	1.4	–
Cc1cc(N2CCN(CCC#N)CC2)cc2nc(-c3c(NC[C@@H](O)c4cccc(Cl)c4)cc[nH]c3=O)[nH]c12	22.1	–
Cc1cc(N2CCN(C(=O)OC(C)(C)C)CC2)cc2[nH]c(-c3c(NC[C@@H](O)c4cccc(Cl)c4)cc[nH]c3=O)nc12	8.3	–
Cc1cc(N2CCN(CCF)CC2)cc2[nH]c(-c3c(NC[C@@H](O)c4cccc(Cl)c4)cc[nH]c3=O)nc12	17.7	–
Cc1cc(N2CCN(C)CC2)cc2[nH]c(-c3c(NC[C@@H](O)c4cccc(Cl)c4)cc[nH]c3=O)nc12	3.4	–
COC(=O)N1CCN(c2cc(C)c3nc(-c4c(NC[C@@H](O)c5cccc(Cl)c5)cc[nH]c4=O)[nH]c3c2)CC1	57.1	–

More lines, main results first:

AUC(0-t) at 4 h [1] [µM·h]	Compound	also measured
3.1	CC(=O)N1CCN(c2cc(C)c3nc(-c4c(NC[C@@H](O)c5cccc(Cl)c5)cc[nH]c4=O)[nH]c3c2)CC1	–
4.5	Cc1cc(N2CCN(C(=O)CCCF)CC2)cc2[nH]c(-c3c(NC[C@@H](O)c4cccc(Cl)c4)cc[nH]c3=O)nc12	–
11.1	COCCN1CCN(c2cc(C)c3nc(-c4c(NC[C@@H](O)c5cccc(Cl)c5)cc[nH]c4=O)[nH]c3c2)CC1	bioavailability [2]: 26%; bioavailability [3]: 26%; clearance [4]: 25.2 mL/min/kg; clearance [5]: 27.8 mL/min/kg; Vd [6]: 4.9 L/kg; Vd [7]: 2.9 L/kg; half-life [8]: 2.9 h; half-life [9]: 1.9 h
50	Cc1cc(N2CCOCC2)cc2[nH]c(-c3c(NC[C@@H](O)c4cccc(Cl)c4)cc[nH]c3=O)nc12	–
26.5	Cc1cc(N2CCNCC2)cc2[nH]c(-c3c(NC[C@@H](O)c4cccc(Cl)c4)cc[nH]c3=O)nc12	–
7.2	Cc1cc(N2CCN(S(C)(=O)=O)CC2)cc2[nH]c(-c3c(NC[C@@H](O)c4cccc(Cl)c4)cc[nH]c3=O)nc12	–
25.3	CCOC(=O)N1CCN(c2cc(C)c3nc(-c4c(NC[C@@H](O)c5cccc(Cl)c5)cc[nH]c4=O)[nH]c3c2)CC1	–
